Test results from PubChem BioAssay (NCI).
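1) Cells in 96-well plates. 2) Compound, 48 h, 5 concentrations. 3) Linear interpolation between surrounding doses. 4) Unreached endpoint = highest concentration. GI50 = concentration required for 50% inhibition of growth. TGI denotes the concentration required for complete inhibition of growth.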

Key:
Experiment in all cases: NCI anticancer screen, dose series, 48 h
[1] = system: UO-31 renal
[2] = system: OVCAR-3 ovarian
[3] = system: 786-0 renal
[4] = system: T-47D breast
[5] = system: SK-MEL-5 melanoma
[6] = system: ACHN renal
[7] = system: K-562 leukemia
[8] = system: CAKI-1 renal
[9] = system: MOLT-4 leukemia
[10] = system: SF-268 CNS
[11] = system: HOP-92 NSCLC
[12] = system: COLO 205 colon
[13] = system: IGROV1 ovarian
[14] = system: HCT-116 colon
[15] = system: OVCAR-8 ovarian
[16] = system: NCI-H23 lung
[17] = system: NCI-H226 lung
[18] = system: NCI/ADR-RES ovarian
[19] = system: HCC-2998 colon
[20] = system: PC-3 prostate
[21] = system: HS 578T breast
[22] = system: HCT-15 colon
[23] = system: KM12 colon
[24] = system: OVCAR-4 ovarian
[25] = system: CCRF-CEM leukemia
[26] = system: SW-620 colon
[27] = system: MDA-MB-435
[28] = system: SNB-19 CNS
[29] = system: LOX IMVI melanoma
[30] = system: NCI-H460 lung
[31] = system: OVCAR-5 ovarian
[32] = system: RXF 393 renal
[33] = system: UACC-257 melanoma
[34] = system: SF-539 CNS
[35] = system: DU-145 prostate
[36] = system: NCI-H522 lung
[37] = system: U251 CNS
[38] = system: A498 renal
[39] = system: MCF7 breast
[40] = system: SK-OV-3 ovarian
[41] = system: M14 melanoma
[42] = system: RPMI-8226 leukemia
[43] = system: SR leukemia
[44] = system: SK-MEL-28 melanoma
[45] = system: TK-10 renal
[46] = system: SF-295 CNS
[47] = system: SK-MEL-2 melanoma
[48] = system: HT29 colon
[49] = system: HL-60(TB) leukemia
[50] = system: SNB-75 CNS
[51] = system: HOP-62 NSCLC
[52] = system: EKVX NSCLC
[53] = system: MDA-MB-231 breast
[54] = system: MALME-3M melanoma
[55] = system: A549 NSCLC
[56] = system: BT-549 breast

COC(=O)[C@]12CC[C@@H](C)[C@H](C)[C@@H]1C1=CC[C@@H]3[C@@]4(C)C[C@@H](OC(C)=O)[C@H](O)[C@@](C)(CO)[C@@H]4[C@H](O)C[C@@]3(C)[C@]1(C)CC2
GI50 [1]: 3.58 µM
TGI [1]: 17.1 µM
GI50 [2]: 13.4 µM
TGI [2]: 29.9 µM
GI50 [3]: 14.5 µM
TGI [3]: 29.8 µM
GI50 [4]: 12.4 µM
TGI [4]: 28.7 µM
GI50 [5]: 12.9 µM
TGI [5]: 26 µM
GI50 [6]: 10.4 µM
TGI [6]: 24.5 µM
GI50 [7]: 9.18 µM
TGI [7]: 27.4 µM
GI50 [8]: 10.1 µM
TGI [8]: 21.9 µM
GI50 [9]: 5.82 µM
TGI [9]: 22 µM
GI50 [10]: 10.8 µM
TGI [10]: 28.2 µM
GI50 [11]: 11.3 µM
TGI [11]: 24.3 µM
GI50 [12]: 11.6 µM
TGI [12]: 25.9 µM
GI50 [13]: 8.87 µM
TGI [13]: 24.8 µM
GI50 [14]: 11.8 µM
TGI [14]: 25.4 µM
GI50 [15]: 12.2 µM
TGI [15]: 30.4 µM
GI50 [16]: 13.6 µM
TGI [16]: 30 µM
GI50 [17]: 16.3 µM
TGI [17]: 38.2 µM
GI50 [18]: 13.2 µM
TGI [18]: 29.5 µM
GI50 [19]: 12 µM
TGI [19]: 26.7 µM
GI50 [20]: 7.53 µM
TGI [20]: 20.5 µM
GI50 [21]: 11.9 µM
TGI [21]: 29.6 µM
GI50 [22]: 7.74 µM
TGI [22]: 22.9 µM
GI50 [23]: 9.95 µM
TGI [23]: 26.7 µM
GI50 [24]: 12 µM
TGI [24]: 27 µM
GI50 [25]: 12.8 µM
TGI [25]: 36.5 µM
GI50 [26]: 16 µM
TGI [26]: 35.6 µM
GI50 [27]: 12.6 µM
TGI [27]: 26 µM
GI50 [28]: 14.3 µM
TGI [28]: 31.3 µM
GI50 [29]: 10.4 µM
TGI [29]: 23.6 µM
GI50 [30]: 10.6 µM
TGI [30]: 26.3 µM
GI50 [31]: 13.2 µM
TGI [31]: 27.7 µM
GI50 [32]: 11 µM
TGI [32]: 26.4 µM
GI50 [33]: 13.4 µM
TGI [33]: 28.1 µM
GI50 [34]: 14.8 µM
TGI [34]: 29.4 µM
GI50 [35]: 13 µM
TGI [35]: 26.4 µM
GI50 [36]: 11.2 µM
TGI [36]: 26.2 µM
GI50 [37]: 10.7 µM
TGI [37]: 23.9 µM
GI50 [38]: 11.9 µM
TGI [38]: 24.7 µM
GI50 [39]: 4.95 µM
TGI [39]: 20.9 µM
GI50 [40]: 16.6 µM
TGI [40]: 30.7 µM
GI50 [41]: 8.14 µM
TGI [41]: 22.2 µM
GI50 [42]: 7.86 µM
TGI [42]: 31.7 µM
GI50 [43]: 7.62 µM
TGI [43]: 25.5 µM
GI50 [44]: 13 µM
TGI [44]: 28.6 µM
GI50 [45]: 15 µM
TGI [45]: 29 µM
GI50 [46]: 11.6 µM
TGI [46]: 25.1 µM
GI50 [47]: 17.7 µM
TGI [47]: 34.1 µM
GI50 [48]: 5.79 µM
TGI [48]: 20.4 µM
GI50 [49]: 13.9 µM
TGI [49]: 31.6 µM
GI50 [50]: 10.2 µM
TGI [50]: 23.1 µM
GI50 [51]: 14.7 µM
TGI [51]: 29.5 µM
GI50 [52]: 10.5 µM
TGI [52]: 24.6 µM
GI50 [53]: 8.95 µM
TGI [53]: 23.4 µM
GI50 [54]: 17.2 µM
TGI [54]: 33 µM
GI50 [55]: 6.39 µM
TGI [55]: 20.8 µM
GI50 [56]: 15 µM
TGI [56]: 29.8 µM
